Test results as given in PubChem BioAssay (NCI).
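Test compounds were applied to cells in 96-well plates for 48 hours at 5 doses. TGI marks complete inhibition of growth.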

Assays:
Assay in all cases: NCI tumour cell line growth inhibition, 48 h
A498 renal = system: A498 renal
EKVX NSCLC = system: EKVX NSCLC
COLO 205 colon = system: COLO 205 colon
786-0 renal = system: 786-0 renal
HT29 colon = system: HT29 colon
KM12 colon = system: KM12 colon
OVCAR-3 ovarian = system: OVCAR-3 ovarian
MALME-3M melanoma = system: MALME-3M melanoma
SF-539 CNS = system: SF-539 CNS
MDA-MB-435 = system: MDA-MB-435
SK-MEL-28 melanoma = system: SK-MEL-28 melanoma
CCRF-CEM leukemia = system: CCRF-CEM leukemia
HOP-92 NSCLC = system: HOP-92 NSCLC
MCF7 breast = system: MCF7 breast
IGROV1 ovarian = system: IGROV1 ovarian
HCC-2998 colon = system: HCC-2998 colon
SK-OV-3 ovarian = system: SK-OV-3 ovarian
SR leukemia = system: SR leukemia
NCI/ADR-RES ovarian = system: NCI/ADR-RES ovarian
SW-620 colon = system: SW-620 colon
DU-145 prostate = system: DU-145 prostate
NCI-H460 lung = system: NCI-H460 lung
SF-268 CNS = system: SF-268 CNS
PC-3 prostate = system: PC-3 prostate
HCT-15 colon = system: HCT-15 colon
CAKI-1 renal = system: CAKI-1 renal
SF-295 CNS = system: SF-295 CNS
OVCAR-4 ovarian = system: OVCAR-4 ovarian
SK-MEL-2 melanoma = system: SK-MEL-2 melanoma
UO-31 renal = system: UO-31 renal
LOX IMVI melanoma = system: LOX IMVI melanoma
MDA-N = system: MDA-N
M14 melanoma = system: M14 melanoma
ACHN renal = system: ACHN renal
SNB-19 CNS = system: SNB-19 CNS
HS 578T breast = system: HS 578T breast
K-562 leukemia = system: K-562 leukemia
NCI-H23 lung = system: NCI-H23 lung
RXF 393 renal = system: RXF 393 renal
MDA-MB-231 breast = system: MDA-MB-231 breast
T-47D breast = system: T-47D breast
HCT-116 colon = system: HCT-116 colon
UACC-257 melanoma = system: UACC-257 melanoma
TK-10 renal = system: TK-10 renal
A549 NSCLC = system: A549 NSCLC
NCI-H226 lung = system: NCI-H226 lung
HOP-62 NSCLC = system: HOP-62 NSCLC
RPMI-8226 leukemia = system: RPMI-8226 leukemia
MOLT-4 leukemia = system: MOLT-4 leukemia
U251 CNS = system: U251 CNS
SN12C renal = system: SN12C renal
OVCAR-5 ovarian = system: OVCAR-5 ovarian
SNB-75 CNS = system: SNB-75 CNS
UACC-62 melanoma = system: UACC-62 melanoma
OVCAR-8 ovarian = system: OVCAR-8 ovarian
HL-60(TB) leukemia = system: HL-60(TB) leukemia

SMILES: O=C1NC2c3c(I)sc(I)c3/C(=N\O)C2O1 (stereo unspecified)
- TGI (A498 renal): > 100 µM
- TGI (EKVX NSCLC): 35.1 µM
- TGI (COLO 205 colon): 48.8 µM
- TGI (786-0 renal): 57.1 µM
- TGI (HT29 colon): 33.4 µM
- TGI (KM12 colon): > 100 µM
- TGI (OVCAR-3 ovarian): 40.2 µM
- TGI (MALME-3M melanoma): 50.2 µM
- TGI (SF-539 CNS): 42.6 µM
- TGI (MDA-MB-435): > 100 µM
- TGI (SK-MEL-28 melanoma): > 100 µM
- TGI (CCRF-CEM leukemia): 80.3 µM
- TGI (HOP-92 NSCLC): 68.1 µM
- TGI (MCF7 breast): > 100 µM
- TGI (IGROV1 ovarian): 45 µM
- TGI (HCC-2998 colon): > 100 µM
- TGI (SK-OV-3 ovarian): > 100 µM
- TGI (SR leukemia): > 100 µM
- TGI (NCI/ADR-RES ovarian): 47.7 µM
- TGI (SW-620 colon): 60.6 µM
- TGI (DU-145 prostate): > 100 µM
- TGI (NCI-H460 lung): > 100 µM
- TGI (SF-268 CNS): 67.8 µM
- TGI (PC-3 prostate): > 100 µM
- TGI (HCT-15 colon): > 100 µM
- TGI (CAKI-1 renal): > 100 µM
- TGI (SF-295 CNS): > 100 µM
- TGI (OVCAR-4 ovarian): 89.8 µM
- TGI (SK-MEL-2 melanoma): > 100 µM
- TGI (UO-31 renal): 32.7 µM
- TGI (LOX IMVI melanoma): > 100 µM
- TGI (MDA-N): > 100 µM
- TGI (M14 melanoma): > 100 µM
- TGI (ACHN renal): 33.6 µM
- TGI (SNB-19 CNS): 58.2 µM
- TGI (HS 578T breast): 70.4 µM
- TGI (K-562 leukemia): > 100 µM
- TGI (NCI-H23 lung): 56.8 µM
- TGI (RXF 393 renal): 44.5 µM
- TGI (MDA-MB-231 breast): 95.8 µM
- TGI (T-47D breast): > 100 µM
- TGI (HCT-116 colon): 75.4 µM
- TGI (UACC-257 melanoma): > 100 µM
- TGI (TK-10 renal): > 100 µM
- TGI (A549 NSCLC): > 100 µM
- TGI (NCI-H226 lung): > 100 µM
- TGI (HOP-62 NSCLC): > 100 µM
- TGI (RPMI-8226 leukemia): > 100 µM
- TGI (MOLT-4 leukemia): > 100 µM
- TGI (U251 CNS): 76.9 µM
- TGI (SN12C renal): > 100 µM
- TGI (OVCAR-5 ovarian): > 100 µM
- TGI (SNB-75 CNS): > 100 µM
- TGI (UACC-62 melanoma): > 100 µM
- TGI (OVCAR-8 ovarian): 43.4 µM
- TGI (HL-60(TB) leukemia): 83.5 µM
